BindingDB's records for doi:10.1021/jm030354b (Millennium Pharmaceuticals, 2004)

Biological target: Integrin alpha-IIb/beta-3 (Homo sapiens, UniProt P08514+P05106)
Experiment: Inhibition of platelet aggregation induced by 20 uM adenosine 5-diphosphate (ADP) in citreated human platelet rich plasma (h-PRP)

Chain of Integrin alpha-IIb/beta-3 (P05106 27-788 limits assumed): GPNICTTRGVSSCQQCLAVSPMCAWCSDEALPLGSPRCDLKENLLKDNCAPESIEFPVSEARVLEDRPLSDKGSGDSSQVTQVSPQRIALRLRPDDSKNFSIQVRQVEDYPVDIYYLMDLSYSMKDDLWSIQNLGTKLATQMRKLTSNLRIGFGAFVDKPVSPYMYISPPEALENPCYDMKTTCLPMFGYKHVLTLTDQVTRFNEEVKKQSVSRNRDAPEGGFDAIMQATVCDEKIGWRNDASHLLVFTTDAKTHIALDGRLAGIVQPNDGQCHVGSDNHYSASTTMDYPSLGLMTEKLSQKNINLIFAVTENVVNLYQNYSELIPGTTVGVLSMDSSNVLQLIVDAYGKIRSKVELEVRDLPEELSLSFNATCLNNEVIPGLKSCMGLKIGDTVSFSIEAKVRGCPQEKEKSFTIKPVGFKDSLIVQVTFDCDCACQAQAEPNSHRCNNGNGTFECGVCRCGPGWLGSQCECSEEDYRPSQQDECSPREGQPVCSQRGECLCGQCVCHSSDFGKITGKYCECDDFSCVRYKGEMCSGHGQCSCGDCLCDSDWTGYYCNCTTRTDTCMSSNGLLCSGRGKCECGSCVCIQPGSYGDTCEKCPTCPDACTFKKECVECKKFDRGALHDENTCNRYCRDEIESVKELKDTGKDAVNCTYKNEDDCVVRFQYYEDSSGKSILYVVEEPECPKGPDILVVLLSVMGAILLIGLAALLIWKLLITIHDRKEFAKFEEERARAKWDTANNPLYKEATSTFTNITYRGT
Chain of Integrin alpha-IIb/beta-3 (P08514 32-887 limits assumed): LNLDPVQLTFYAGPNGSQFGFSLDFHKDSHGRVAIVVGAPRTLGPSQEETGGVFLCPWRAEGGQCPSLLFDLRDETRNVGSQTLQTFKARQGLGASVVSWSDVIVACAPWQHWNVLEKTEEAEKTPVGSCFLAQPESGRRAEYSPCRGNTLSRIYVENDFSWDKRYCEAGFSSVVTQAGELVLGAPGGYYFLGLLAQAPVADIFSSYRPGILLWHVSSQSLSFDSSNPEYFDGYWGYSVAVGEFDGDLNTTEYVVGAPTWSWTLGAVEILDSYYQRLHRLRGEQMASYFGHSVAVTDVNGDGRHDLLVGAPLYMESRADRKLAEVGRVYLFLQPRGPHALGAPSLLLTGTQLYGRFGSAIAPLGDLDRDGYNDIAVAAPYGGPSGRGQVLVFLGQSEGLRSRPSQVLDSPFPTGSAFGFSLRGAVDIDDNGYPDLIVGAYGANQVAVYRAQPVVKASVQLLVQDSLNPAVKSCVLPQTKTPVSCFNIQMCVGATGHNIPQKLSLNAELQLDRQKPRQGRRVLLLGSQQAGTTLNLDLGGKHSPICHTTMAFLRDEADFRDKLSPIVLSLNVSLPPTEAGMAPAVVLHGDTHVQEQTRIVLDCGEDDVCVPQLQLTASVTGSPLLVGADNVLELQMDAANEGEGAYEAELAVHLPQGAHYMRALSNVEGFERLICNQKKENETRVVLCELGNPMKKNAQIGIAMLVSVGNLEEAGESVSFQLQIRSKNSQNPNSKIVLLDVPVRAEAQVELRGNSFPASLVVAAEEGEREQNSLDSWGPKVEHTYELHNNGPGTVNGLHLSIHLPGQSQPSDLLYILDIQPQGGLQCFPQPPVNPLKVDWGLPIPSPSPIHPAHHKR
Chain of Integrin alpha-IIb/beta-3 (P08514 891-1039 limits assumed): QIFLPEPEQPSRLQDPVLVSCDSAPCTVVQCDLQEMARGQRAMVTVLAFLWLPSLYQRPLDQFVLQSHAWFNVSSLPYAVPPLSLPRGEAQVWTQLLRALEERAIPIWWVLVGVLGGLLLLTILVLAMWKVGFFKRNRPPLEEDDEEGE

| SMILES | IC50 [nM] |
| --- | --- |
| N=C(N)c1ccc(N2CC3(CCN(C(=O)NCCC(=O)O)CC3)NC2=O)cc1 [3-{[3-(4-Carbamimidoyl-phenyl)-2-oxo-1,3,8-triaza-spiro[4.5]decane-8-carbonyl]-amino}-propionic acid] | 3770 |
| N=C(N)c1ccc(N2CCC3(CCN(C(=O)CCC(=O)O)CC3)C2=O)cc1 [4-[2-(4-Carbamimidoyl-phenyl)-1-oxo-2,8-diaza-spiro[4.5]dec-8-yl]-4-oxo-butyric acid] | 733 |
| N=C(N)c1ccc(N2C(=O)CC3(CCN(C(=O)CCCC(=O)O)CC3)C2=O)cc1 [5-[2-(4-Carbamimidoyl-phenyl)-1,3-dioxo-2,8-diaza-spiro[4.5]dec-8-yl]-5-oxo-pentanoic acid] | 730 |
| Cc1noc(C)c1S(=O)(=O)N[C@@H](CCC(=O)N1CCC2(CC1)CCN(c1ccc(C(=N)N)cc1)C2=O)C(=O)O [5-[2-(4-Carbamimidoyl-phenyl)-1-oxo-2,8-diaza-spiro[4.5]dec-8-yl]-2-(3,5-dimethyl-isoxazole-4-sulfonylamino)-5-oxo-pentanoic acid] | 36 |
| N=C(N)c1ccc(N2CCC3(CCN(CCCCC(=O)O)CC3)C2=O)cc1 [5-[2-(4-Carbamimidoyl-phenyl)-1-oxo-2,8-diaza-spiro[4.5]dec-8-yl]-pentanoic acid] | 5180 |
| Cc1noc(C)c1S(=O)(=O)N[C@@H](CCC(=O)N1CCC2(CC1)C(=O)N(c1ccc(C(=N)N)cc1)C(=O)N2C)C(=O)O [5-[3-(4-Carbamimidoyl-phenyl)-1-methyl-2,4-dioxo-1,3,8-triaza-spiro[4.5]dec-8-yl]-2-(3,5-dimethyl-isoxazole-4-sulfonylamino)-5-oxo-pentanoic acid] | 118 |
| CN1C(=O)N(c2ccc(C(=N)N)cc2)C(=O)C12CCN(C(=O)CCCC(=O)O)CC2 [5-[3-(4-Carbamimidoyl-phenyl)-1-methyl-2,4-dioxo-1,3,8-triaza-spiro[4.5]dec-8-yl]-5-oxo-pentanoic acid] | 700 |

More lines, in order of falling IC50, values ahead:

| IC50 [nM] | SMILES |
| --- | --- |
| 7560 | CN1C(=O)N(c2ccc(C(=N)N)cc2)C(=O)C12CCN(CCCCC(=O)O)CC2 [5-[3-(4-Carbamimidoyl-phenyl)-1-methyl-2,4-dioxo-1,3,8-triaza-spiro[4.5]dec-8-yl]-pentanoic acid] |
| 5700 | N=C(N)c1ccc(N2CC3(CCN(C(=O)CCC(=O)O)CC3)CC2=O)cc1 [4-[2-(4-Carbamimidoyl-phenyl)-3-oxo-2,8-diaza-spiro[4.5]dec-8-yl]-4-oxo-butyric acid] |
| 674 | CN1C(=O)N(c2ccc(C(=N)N)cc2)CC12CCN(C(=O)CCCC(=O)O)CC2 [5-[3-(4-Carbamimidoyl-phenyl)-1-methyl-2-oxo-1,3,8-triaza-spiro[4.5]dec-8-yl]-5-oxo-pentanoic acid] |
| 586 | N=C(N)c1ccc(N2C(=O)NC3(CCN(C(=O)CCCC(=O)O)CC3)C2=O)cc1 [5-[3-(4-Carbamimidoyl-phenyl)-2,4-dioxo-1,3,8-triaza-spiro[4.5]dec-8-yl]-5-oxo-pentanoic acid] |
| 149 | N=C(N)c1ccc(N2CCC3(CCN(C(=O)CC(CC(=O)O)c4ccccc4)CC3)C2=O)cc1 (stereo not given) [5-[2-(4-Carbamimidoyl-phenyl)-1-oxo-2,8-diaza-spiro[4.5]dec-8-yl]-5-oxo-3-phenyl-pentanoic acid] |
| 120 | CN1C(=O)N(c2ccc(C(=N)N)cc2)C(=O)C12CCN(C(=O)CC(CC(=O)O)c1ccccc1)CC2 (stereo not given) [5-[3-(4-Carbamimidoyl-phenyl)-1-methyl-2,4-dioxo-1,3,8-triaza-spiro[4.5]dec-8-yl]-5-oxo-3-phenyl-pentanoic acid] |
| 100 | N=C(N)c1ccc(N2CC3(CCN(C(=O)CC(CC(=O)O)c4ccccc4)CC3)CC2=O)cc1 (stereo not given) [5-[2-(4-Carbamimidoyl-phenyl)-3-oxo-2,8-diaza-spiro[4.5]dec-8-yl]-5-oxo-3-phenyl-pentanoic acid] |
| 80 | CN1C(=O)N(c2ccc(C(=N)N)cc2)CC12CCN(C(=O)CC(CC(=O)O)c1ccccc1)CC2 (stereo not given) [5-[3-(4-Carbamimidoyl-phenyl)-1-methyl-2-oxo-1,3,8-triaza-spiro[4.5]dec-8-yl]-5-oxo-3-phenyl-pentanoic acid] |
